Measurements: patent US20140094365A1, “SYNERGISTIC WEED CONTROL FROM APPLICATIONS OF AMINOCYCLOPYRACHLOR AND TRICLOPYR” (Dow AgroSciences LLC, priority 2012, published 2014)

Legend:
Assay in all cases: Field trial, post-emergence foliar weed control
Type in all cases: in vivo
[1] = tested on: buckhorn plantain (Plantago lanceolata, PLALA)
Excerpt: (§1) The (a) aminocyclopyrachlor or an agriculturally acceptable salt or ester thereof is mixed with or applied in combination with (b) triclopyr or an agriculturally acceptable salt or ester thereof in an amount sufficient to induce a synergistic herbicidal effect. […] As described in the Herbicide Handbook of the Weed Science Society of America, Ninth Edition, 2007, p. 429, “‘synergism’ [is] an interaction of two or more factors such that the effect when combined is greater than the predicted effect based on the response to each factor applied separately.” Synergistic in the herbicide context can mean that the use of (a) and (b) as defined above results in an increased weed control effect compared to the weed control effects that are possible with the use of (a) or (b) alone. In some embodiments, the damage or injury to the undesired vegetation caused by the compositions and methods disclosed herein is evaluated using a scale from 0% to 100%, when compared with the untreated control vegetation, wherein 0% indicates no damage to the undesired vegetation and 100% indicates complete destruction of the undesired vegetation. […] 22 (1967)
(§2) Field trials were conducted with applications made to established grassland with naturally occurring weed populations, or applications were made to bare ground with naturally occurring weed populations. The target plants were treated with post emergence foliar applications after they had reached at least 3-4 leaves or at least 2-5 inches in height. All treatments were applied using a randomized complete block trial design, with 3-4 replications per treatment.
(§3) Treatments consisted of aminocyclopyrachlor in acid form and triclopyr-butotyl, each in water and applied alone or in combination. Spray solutions were prepared using an appropriate amount of dilution to form a 2 liter (L) aqueous spray solution with active ingredients in single and two way combinations. Formulated compounds were applied to the plant material with a backpack sprayer equipped with 8003 or Turbojet nozzles calibrated to deliver 187 L/ha to 400 L/ha at a spray height of 18-20 inches (43-50 centimeters (cm)) above average plant canopy.
(§4) The treated plants were buckhorn plantain (Plantago lanceolata, PLALA), calvary clover (Medicago arabica, MEDAB), shepherd's purse (Capsella bursa-pastoris, CAPBP), common fiddleneck (Amsinckia intermedia, AMSIN), redmaids (Calandrinia ciliata, CLNCM), and broomweed (Sida acuta, SIDAC). The treated plots and control plots were rated blind at various intervals after application. Ratings were based on a scale of 0-100%, as discussed above, wherein 0% indicates no damage to the undesired vegetation and 100% indicates complete destruction of the undesired vegetation
(§5) Colby's equation was used to determine the herbicidal effects expected from the mixtures, as described above. The results were measured at 7 days, 14 days, 17 days, 24 days, 27 days, 60 days, and 72 days after the first application of the compositions. […] The herbicide tank mix combinations tested, application rates and ratios employed, plant species tested, and results are given below.

[2] = tested on: broomweed (Sida acuta, SIDAC)
Excerpt: as §1, §2, §3, §4, §5

[3] = tested on: calvary clover (Medicago arabica, MEDAB)
Excerpt: as §1, §2, §3, §4, §5

[4] = tested on: redmaids (Calandrinia ciliata, CLNCM); conditions: 17 DAYS
Excerpt: as §1, §2, §3, §4, §5

[5] = tested on: common fiddleneck (Amsinckia intermedia, AMSIN)
Excerpt: as §1, §2, §3, §4, §5

[6] = tested on: shepherd's purse (Capsella bursa-pastoris, CAPBP)
Excerpt: as §1, §2, §3, §4, §5

## Nc1nc(C2CC2)nc(C(=O)O)c1Cl [Aminocyclopyrachlor, 6-amino-5-chloro-2-cyclopropylpyrimidine-4-carboxylic acid]
[1]; 14 DAYS, 18 g ae/ha alone
  Mean % weed control: 37.5%
[1]; 14 DAYS, 35 g ae/ha alone
  Mean % weed control: 40%
[1]; 27 DAYS, 18 g ae/ha alone
  Mean % weed control: 22.5%
[1]; 27 DAYS, 35 g ae/ha alone (aminocyclopyrachlor)
  Mean % weed control: 35%
[2]; 60 DAYS, 150 g ae/ha alone
  Mean % weed control: 53%
[2]; 72 DAYS, 150 g ae/ha alone
  Mean % weed control: 60%
[3]; 7 DAYS, 18 g ae/ha alone
  Mean % weed control: 20%
[3]; 14 DAYS, 18 g ae/ha alone
  Mean % weed control: 47.5%
[3]; 14 DAYS, 35 g ae/ha alone
  Mean % weed control: 47.5%
[3]; 27 DAYS, 18 g ae/ha alone
  Mean % weed control: 27.5%
[4]; 35 g ae/ha alone
  Mean % weed control: 16.67%
[5]; 17 DAYS, 35 g ae/ha alone
  Mean % weed control: 0%
[5]; 24 DAYS, 35 g ae/ha alone
  Mean % weed control: 0%
[6]; 17 DAYS, 18 g ae/ha alone
  Mean % weed control: 23.33%
[6]; 24 DAYS, 18 g ae/ha alone
  Mean % weed control: 20%

## CCCCOCCOC(=O)COc1nc(Cl)c(Cl)cc1Cl [Triclopyr-butotyl]
[1]; 14 DAYS, 70 g ae/ha alone
  Mean % weed control: 7.5%
[1]; 27 DAYS, 35 g ae/ha alone (triclopyr-butotyl)
  Mean % weed control: 2.5%
[1]; 27 DAYS, 70 g ae/ha alone
  Mean % weed control: 3.75%
[2]; 60 DAYS, 360 g ae/ha alone
  Mean % weed control: 2%
[2]; 72 DAYS, 360 g ae/ha alone
  Mean % weed control: 10%
[3]; 7 DAYS, 70 g ae/ha alone
  Mean % weed control: 13.75%
[3]; 14 DAYS, 70 g ae/ha alone
  Mean % weed control: 10%
[3]; 27 DAYS, 35 g ae/ha alone
  Mean % weed control: 2.5%
[3]; 27 DAYS, 70 g ae/ha alone
  Mean % weed control: 5%
[4]; 70 g ae/ha alone
  Mean % weed control: 20%
[4]; 140 g ae/ha alone
  Mean % weed control: 23.33%
[5]; 17 DAYS, 70 g ae/ha alone
  Mean % weed control: 0%
[5]; 24 DAYS, 70 g ae/ha alone
  Mean % weed control: 0%
[6]; 17 DAYS, 35 g ae/ha alone
  Mean % weed control: 40%
[6]; 17 DAYS, 70 g ae/ha alone
  Mean % weed control: 46.67%
[6]; 24 DAYS, 35 g ae/ha alone
  Mean % weed control: 40%
[6]; 24 DAYS, 70 g ae/ha alone
  Mean % weed control: 58.33%
